Data: US20080280920A1, “Plasminogen Activator Inhibitor-1 Inhibitors” (priority 2005, published 2008)

What was measured:
Type in all cases: cell-based, human
HOP-92 = assay: NCI anticancer screen, HOP-92; settings: Homo sapiens; HOP-92, Non-Small Cell Lung, 48 h
786-0 = assay: NCI anticancer screen, 786-0; settings: Homo sapiens; 786-0, Renal, 48 h
BT-549 = assay: NCI anticancer screen, BT-549; settings: Homo sapiens; BT-549, Breast, 48 h
A498 = assay: NCI anticancer screen, A498; settings: Homo sapiens; A498, Renal, 48 h
K-562 = assay: NCI anticancer screen, K-562; settings: Homo sapiens, K562; K-562, Leukemia, 48 h
SF-268 = assay: NCI anticancer screen, SF-268; settings: Homo sapiens; SF-268, CNS, 48 h
SNB-19 = assay: NCI anticancer screen, SNB-19; settings: Homo sapiens; SNB-19, CNS, 48 h
OVCAR-3 = assay: NCI anticancer screen, OVCAR-3; settings: Homo sapiens; OVCAR-3, Ovarian, 48 h
UO-31 = assay: NCI anticancer screen, UO-31; settings: Homo sapiens; UO-31, Renal, 48 h
MALME-3M = assay: NCI anticancer screen, MALME-3M; settings: Homo sapiens, Melanoma, 48 h
HS 578T = assay: NCI anticancer screen, HS 578T; settings: Homo sapiens, Breast, 48 h
SN12C = assay: NCI anticancer screen, SN12C; settings: Homo sapiens, 48 h, Renal
OVCAR-8 = assay: NCI anticancer screen, OVCAR-8; settings: Homo sapiens; OVCAR-8, Ovarian, 48 h
OVCAR-4 = assay: NCI anticancer screen, OVCAR-4; settings: Homo sapiens; OVCAR-4, Ovarian, 48 h
SK-OV-3 = assay: NCI anticancer screen, SK-OV-3; settings: Homo sapiens; SK-OV-3, Ovarian, 48 h
SNB-75 = assay: NCI anticancer screen, SNB-75; settings: Homo sapiens; SNB-75, CNS, 48 h
OVCAR-5 = assay: NCI anticancer screen, OVCAR-5; settings: Homo sapiens; OVCAR-5, Ovarian, 48 h
PC-3 = assay: NCI anticancer screen, PC-3; settings: Homo sapiens; PC-3, Prostate, 48 h
M14 = assay: NCI anticancer screen, M14; settings: Homo sapiens; M14, Melanoma, 48 h
NCI-H522 = assay: NCI anticancer screen, NCI-H522; settings: Homo sapiens; NCI-H522, Non-Small Cell Lung, 48 h
A549/ATCC = assay: NCI anticancer screen, A549/ATCC; settings: Homo sapiens, Non-Small Cell Lung, 48 h
UACC-257 = assay: NCI anticancer screen, UACC-257; settings: Homo sapiens; UACC-257, Melanoma, 48 h
IGR-OV1 = assay: NCI anticancer screen, IGR-OV1; settings: Homo sapiens, IGROV-1; IGR-OV1, Ovarian, 48 h
NCI/ADR-RES = assay: NCI anticancer screen, NCI/ADR-RES; settings: Homo sapiens, Breast, 48 h
HT29 = assay: NCI anticancer screen, HT29; settings: Homo sapiens, HT-29; HT29, Colon, 48 h
HCT-15 = assay: NCI anticancer screen, HCT-15; settings: Homo sapiens; HCT-15, Colon, 48 h
MCF7 = assay: NCI anticancer screen, MCF7; settings: Homo sapiens; MCF7, Breast, 48 h
NCI-H460 = assay: NCI anticancer screen, NCI-H460; settings: Homo sapiens; NCI-H460, Non-Small Cell Lung, 48 h
SW-620 = assay: NCI anticancer screen, SW-620; settings: Homo sapiens; SW-620, Colon, 48 h
SR = assay: NCI anticancer screen, SR; settings: Homo sapiens, Leukemia, 48 h
KM12 = assay: NCI anticancer screen, KM12; settings: Homo sapiens; KM12, Colon, 48 h
MOLT-4 = assay: NCI anticancer screen, MOLT-4; settings: Homo sapiens; MOLT-4, Leukemia, 48 h
HCC-2998 = assay: NCI anticancer screen, HCC-2998; settings: Homo sapiens; HCC-2998, Colon, 48 h
CAKI-1 = assay: NCI anticancer screen, CAKI-1; settings: Homo sapiens; CAKI-1, Renal, 48 h

| SMILES | GI50 (HOP-92) [µM] | GI50 (786-0) [µM] | GI50 (BT-549) [µM] | GI50 (A498) [µM] | GI50 (K-562) [µM] | GI50 (SF-268) [µM] | GI50 (SNB-19) [µM] | GI50 (OVCAR-3) [µM] | GI50 (UO-31) [µM] | GI50 (MALME-3M) [µM] | GI50 (HS 578T) [µM] | GI50 (SN12C) [µM] | GI50 (OVCAR-8) [µM] | GI50 (OVCAR-4) [µM] | GI50 (SK-OV-3) [µM] | GI50 (SNB-75) [µM] | GI50 (OVCAR-5) [µM] | GI50 (PC-3) [µM] | GI50 (M14) [µM] | GI50 (NCI-H522) [µM] | further results |
| --- | --- | --- | --- | --- | --- | --- | --- | --- | --- | --- | --- | --- | --- | --- | --- | --- | --- | --- | --- | --- | --- |
| CC(C)(C)OC(=O)Nc1ccc(O)c(C(=O)NCCOC(=O)NCCNC(=O)c2cc(OCc3ccccc3)ccc2OCc2ccccc2)c1 [Compound Q012052, 2-[5-(BOC-amino)-2-hydroxybenzoylamino]ethyl 2-[2,5-bis-(benzyl-oxy)benzoylamino]ethylcarbamate] | 83.1 | > 100 | 80.1 | > 100 | 14 | > 100 | > 100 | > 100 | 19.9 | > 100 | > 100 | > 100 | > 100 | 29.1 | > 100 | 68.9 | > 100 | 24.9 | > 100 | 49.7 | GI50 (A549/ATCC): 68.8 µM; GI50 (UACC-257): 15.6 µM; GI50 (IGR-OV1): 25.3 µM; GI50 (NCI/ADR-RES): > 100 µM; GI50 (HT29): > 100 µM; GI50 (HCT-15): > 100 µM; GI50 (MCF7): 17.1 µM; GI50 (NCI-H460): > 100 µM; GI50 (SW-620): > 100 µM; GI50 (SR): 89.8 µM; GI50 (KM12): > 100 µM; GI50 (MOLT-4): 4.05 µM; GI50 (HCC-2998): > 100 µM; GI50 (CAKI-1): 98 µM |
| COc1cc(CNc2ccc(C(=O)OC(C)(C)C)cc2)cc(CN2CCN(c3ccccn3)CC2)c1O [Compound Q012145T] | 6.57 | 48.6 | 52.9 | 16.2 | 10.2 | 61.5 | > 100 | 37.5 | 67.2 | 34.6 | > 100 | > 100 | > 100 | 46.9 | > 100 | > 100 | > 100 | 23.5 | 83.3 | 52.9 | GI50 (A549/ATCC): 84.3 µM; GI50 (UACC-257): 33 µM; GI50 (IGR-OV1): > 100 µM; GI50 (NCI/ADR-RES): 41.1 µM; GI50 (HT29): 12.7 µM; GI50 (HCT-15): 46.4 µM; GI50 (MCF7): 21 µM; GI50 (NCI-H460): 21.9 µM; GI50 (SW-620): 63.7 µM; GI50 (SR): 8.3 µM; GI50 (KM12): 80.1 µM; GI50 (MOLT-4): 13 µM; GI50 (HCC-2998): > 100 µM; GI50 (CAKI-1): > 100 µM |
